Measurements published in patent publication US6903118B1, “Piperazinyl-substituted pyridylalkane, alkene and alkine carboxamides” (Klinge Pharma GmbH, priority 1997, dated 2005).

| melting point | SMILES |
| --- | --- |
| 110 to 114 °C | O=C(C=Cc1cccnc1)NCCCCN1CCN(C2CCCc3ccccc32)CC1 (stereo not shown) [Substance 87, 3-pyridin-3-yl-N-{4-[4-(1,2,3,4-tetrahydronaphthalin-1-yl)-piperazin-1-yl]-butyl}-acrylamide] |
| 115 °C | O=C(C=Cc1cccnc1)NCCCCN1CCN(c2ccccc2-c2ccccc2)CC1 [Substance 68, N-[4-(4-biphenyl-2-yl-piperazin-1-yl)-butyl)-3-pyridin-3-yl-acrylamide] |
| 108 to 109 °C | O=C(C=Cc1cccnc1)NCCCCN1CCN(c2cccc3c2CCCC3)CC1 [Substance 94, 3-pyridin-3-yl-N-[4-(4-{5,6,7,8-tetrahydro-naphthalin-1-yl}-piperazin-1-yl)-butyl]-acrylamide] |
| 115 to 117 °C | O=C(C=Cc1cccnc1)NOCCCN1CCN(C(c2ccccc2)c2ccccc2)CC1 [Substance 30, N-[3-(4-diphenylmethylpiperazin-1-yl)-propoxy]-3-pyridin-3-yl-acrylamide] |
| 168 to 171 °C | O=C(C=Cc1cccnc1)NCCC(O)CN1CCN(C(c2ccccc2)c2ccccc2)CC1 (stereo not shown) [Substance 29, N-[4-(4-diphenylmethyl-piperazin-1-yl)-3-hydroxy-butyl]-3-pyridin-3-yl-acrylamide] |
| 167 to 168 °C | O=C(C=Cc1cccnc1)NCCCS(=O)(=O)N1CCN(C(c2ccccc2)c2ccccc2)CC1 [Substance 32, N-[3-(4-diphenylmethyl-piperazin-1-yl-sulfonyl)-propyl]-3-pyridin-3-yl-acrylamide] |
| 183 to 184 °C | O=C(C=Cc1cccnc1)NCCN1CCN(S(=O)(=O)c2ccc3ccccc3c2)CC1 [Substance 227, N-{2-[4-(naphthalin-2-yl-sulfonyl)-piperazin-1-yl]-ethyl}-3-pyridin-3-yl-acrylamide] |
